Data set [1] is described as follows: Plasma protein binding assay (equilibrium dialysis), human plasma. The format is in vitro ADME. The protocol: (§1) Preparation of plasma samples: 5 μL of test compound solution or positive control was added to 495 μL of blank plasma of various species (mouse, rat, dog, monkey and human) to obtain plasma sample solutions at plasma concentrations of 1 μM and 10 μM (in acetonitrile).
(§2) The pretreated dialysis membrane was loaded on a high-throughput equilibrium dialysis system. 100 μL of the plasma sample solution and PBS buffer were added to the two sides (sample side and buffer side) of the dialysis membrane respectively (n=3). The system was sealed with a patch and incubated at 37° C. overnight (100 rpm) to achieve dialysis equilibrium. 50 μL samples were taken from the sample side and the buffer side, and the reaction was terminated with glacial acetonitrile containing an internal standard.
(§3) Sample pretreatment: 450 μL of glacial acetonitrile containing an internal standard was added to 50 μL of the sample from the plasma side for precipitation. The mixture was vortexed for 5 min, and centrifuged (12000 rpm, 4° C.) for 10 min. 75 μL of supernatant was taken and diluted with 75 μL of ultrapure water. After being mixed well, 1 μL of the resulting sample was injected for analysis; 250 μL of glacial acetonitrile containing an internal standard was added to 50 μL of the sample from the PBS side for precipitation. The mixture was vortexed for 5 min, and centrifuged (12000 rpm, 4° C.) for 10 min. […]

The test system of data set [2] is HBV DNA in HepG2.2.15 cells. Description: In-vitro inhibitory activity against HBV DNA in HepG2.2.15 cells. The following applies: Hepatitis B virus, 144 h, 6 days treatment, intracellular capsid HBV DNA by qPCR, read-out: EC50 (anti-HBV activity). The format is cell-based. The protocol:
(§4) A vial of HepG2.2.15 cells (Wuhan Institute of Virology) or HepAD38 cells in good condition and at logarithmic growth phase was washed once with 5 mL of PBS. 3 mL of pancreatin was added. The cells were digested at room temperature for 5 min, then 2 mL of pancreatin was discarded. The cells were further digested in a cell incubator for 10 min, and observed under a microscope (whether the cells are round in shape, and whether the cells are separated or adhered). 10 mL of complete medium was added to terminate the digestion. The cells was mixed using a pipette to obtain a single cell suspension. 10 μL of the cell suspension was loaded on a cell counter for counting, and diluted with the complete medium to adjust the cell density to 1×10^5 cells/mL. The cells were seeded on a 24-well plate (pre-coated with 50 μg/mL Collagen I solution) at 1 mL/well using a multi-channel pipette and cultured in a thermostatic CO2 incubator for 48 h.
(§5) A solution of the compound dissolved in DMSO was diluted to 10 concentrations in a 2-fold gradient using complete medium. The cells were treated with the compound for 6 days with the media containing the compound refreshed every 72 h. […] HBV DNA in the intracellular viral capsid was measured by real-time fluorescent quantitative PCR. The inhibition rate was calculated according to the Ct value, and the EC50 value was calculated by four-parameter fitting.

Data set [3] can be described thus: Plasma protein binding assay (equilibrium dialysis), mouse plasma. The format is in vitro ADME. The protocol:
as §1, §2, §3

The nature of data set [4]: Plasma protein binding assay (equilibrium dialysis), dog plasma. The format is in vitro ADME. The protocol:
as §1, §2, §3

Data set [5] is described as follows: Plasma protein binding assay (equilibrium dialysis), rat plasma. The format is in vitro ADME. The protocol: as §1, §2, §3
The format of data set [6] is in vitro ADME. The protocol:
A final incubation system of 300 μL contained 30 μL of liver microsomes (protein concentration: 0.15 mg/mL), 30 μL of NADPH+MgCl2, 3 μL of substrate (in acetonitrile) and 237 μL of PBS. Samples were prepared in duplicate of 0.3 mL for each specie. For each tube, the 270 μL mixed solution of substrates and enzyme and the NADPH solution were separately pre-incubated at 37° C. for 5 min. The 30 μL mixed solution of NADPH+MgCl2 was added for reaction. 50 μL samples were taken at 0 min, 10 min, 30 min and 60 min, and 300 μL of glacial acetonitrile containing an internal standard was added to the samples to terminate the reaction.
Sample pretreatment: 300 μL of glacial acetonitrile containing internal standard diazepam was added to 50 μL of the incubated sample for precipitation. The mixture was vortexed for 5 min, and centrifuged (12000 rpm, 4° C.) for 10 min. 75 μL of supernatant was added to a 96-well plate and diluted with 75 μL of ultrapure water. After being mixed well, 0.5 μL of the resulting sample was injected to a LC-MS/MS system for analysis.

Data set [7] in a line: Plasma protein binding assay (equilibrium dialysis), monkey plasma. The format is in vitro ADME. The protocol:
as §1, §2, §3

The test system of data set [8] is HBV DNA in HepAD38 cells. Briefly: In-vitro inhibitory activity against HBV DNA in HepAD38 cells. The format is cell-based. The following applies: Hepatitis B virus, 144 h, 6 days treatment, intracellular capsid HBV DNA by qPCR, read-out: EC50 (anti-HBV activity). The protocol: as §4, §5
The nature of data set [9]: Pharmacokinetic (PK) study in rats. The format is in vivo. The following applies: SD rats, PO 20 mg/kg. The protocol:
SD rats (B&K Universal, Shanghai) of 180-220 g were randomized into groups of 3 after 3-5 days of acclimatization and administered with the compounds at a dose of 20 mg/kg by oral gavage.
The animals to be tested (SD rats) were fasted for 12 h before administration and fed 4 h after administration, and had free access to water before, after and during the experiment.
After administration, about 0.2 mL of blood was collected from the orbit at 0 min, 15 min, 30 min, 1 h, 2 h, 4 h, 6 h, 8 h, 10 h, 24 h, 30 h and 48 h. After anticoagulation with EDTA-K2, the blood samples were transferred to a centrifuge at 4° C. within 30 min and centrifuged at 4000 rpm for 10 min to separate the plasma. All the plasma samples were collected and immediately stored at −20° C. for testing. 50 μL of the plasma sample to be tested and standard curve sample were taken, and 500 μL of acetonitrile solution containing an internal standard (20 mg/mL diazepam) was added. The reaction system was shaken for 5 min and centrifuged at 12,000 rpm for 10 min. 75 μL of supernatant was taken and diluted with 75 μL of ultrapure water.
After being mixed well, 1 μL of the resulting sample was taken for LC/MS/MS analysis.

Data set [10] is described as follows: Stability assay of crystalline form (influential factors: high temperature, high humidity, illumination). The format is physicochemical. The settings on record: for Stability at high humidity, at high temperature or under illumination (in words): related substance and water over the observation items. The protocol:
The crystalline form I of the compound of formula I prepared in Example 2 and the crystalline form II of the compound of formula I prepared in Example 4, each of 500 mg, were separately placed in dry and clean containers, and evenly spread in thin layers as test samples. The samples were completely exposed to experimental conditions of influential factors (40° C., 60° C., 75% RH, 92.5% RH, high temperature and high humidity (40° C., 75% RH)). Samples were taken for analysis on day 10 and day 30. The samples were completely exposed to illumination (visible light of 1,200,000 Lux·hr, UV of 216 W·hr/m^2) at room temperature.
Chromatographic column: Agilent AdvanceBio Peptide C18 (4.6 mm×150 mm, 3.5 μm).
The water content was measured by a Mettler V20 system.
About 10 mg of the sample was dissolved with an appropriate amount of a mixed diluent of acetonitrile-water (70:30) for content assay of related substance.

Setting [11] is: High humidity (92.5% RH), Day 10.
Setting [12] is: High humidity (92.5% RH), Day 30.
The mark [13] stands for this setting: High temperature (40° C.), Day 10.
Setting [14] is: High temperature (40° C.), Day 30.
[15] abbreviates: High temperature (60° C.), Day 10.
[16] abbreviates: High temperature (60° C.), Day 30.
[17] abbreviates: High temperature and high humidity (40° C., 75% RH), Day 10.
Where [18] appears, read: High temperature and high humidity (40° C., 75% RH), Day 30.

In the case of `Cc1c(C(=O)Nc2ccc(F)c(C#N)c2)c(C)n(C)c1C(=O)C(=O)N[C@@H](C)C(F)(F)F` [Compound of formula I, (S)—N-(3-cyano-4-fluorophenyl)-1,2,4-trimethyl-5-(2-oxo-2-((1,1,1-trifluoropropan-2-yl)amino)acetyl)-1H-pyrrol-3-carboxamide], the results for the “Binding rate, Human” value in [1] (1 μM) and in data set [1] (10 μM) were 94.0% and 93.7%, respectively. Moreover, the 50% effective concentration (EC50) in data set [2] and in data set [8] was at most 10 nM in each case. For the same compound, the “Binding rate, Mouse” value in data set [3] (1 μM) is reported as 75.3%; in [3] (10 μM), 74.5%. Moreover, the “Binding rate, Dog” value in data set [4] (1 μM) and in data set [4] (10 μM) was 85.9% throughout. In addition, the “Binding rate, Rat” value was found to be 82.0% in data set [5] (1 μM) and 79.2% in [5] (10 μM). In addition, in data set [6], the “Residual content after 60 min, Human liver microsome” value is given as 78.8%. In addition, the “Residual content after 60 min, Mouse liver microsome” value in data set [6] is given as 67.1%. Further, the “Residual content after 60 min, Rat liver microsome” value in data set [6] was determined as 65.0%. Further, the figures for the “Binding rate, Monkey” value in data set [7] (1 μM) and in [7] (10 μM) were 90.7% and 90.6%, respectively. This compound returned a F in data set [9] of 57%.

In the case of `Cc1c(C(=O)Nc2ccc(F)c(C#N)c2)c(C)n(C)c1C(=O)C(=O)N[C@@H](C)C(F)(F)F` [crystalline form I, (S)—N-(3-cyano-4-fluorophenyl)-1,2,4-trimethyl-5-(2-oxo-2-((1,1,1-trifluoropropan-2-yl)amino)acetyl)-1H-pyrrol-3-carboxamide], the “Related substance (total impurities)” value is given as 0.55% in data set [10] (Day 0); 0.72% in data set [10] (High humidity (75% RH), Day 10); 0.66% in data set [10] (High humidity (75% RH), Day 30); 0.69% in data set [10] (setting [11]); 0.66% in data set [10] (setting [12]); 0.66% in data set [10] (setting [13]). Further, the “Related substance (total impurities)” value in data set [10] (setting [14]) was 0.63%; in data set [10] (setting [15]) it was 0.66%; in data set [10] (setting [16]), 0.60%; in data set [10] (setting [17]) it was 0.64%; in [10] (setting [18]), 0.64%; in [10] (Illumination, Day 10), 0.63%. Moreover, the Water in data set [10] (Day 0) is listed as 0.27%; in [10] (High humidity (75% RH), Day 10), 0.19%; in data set [10] (High humidity (75% RH), Day 30), 0.20%; in data set [10] (setting [11]), 0.21%; in [10] (setting [12]) it was 0.26%; in data set [10] (setting [13]), 0.18%. Further, the Water in data set [10] (setting [14]) is 0.19%; in data set [10] (setting [15]), 0.20%; in data set [10] (setting [16]), 0.18%; in data set [10] (setting [17]), 0.17%; in [10] (setting [18]), 0.22%; in data set [10] (Illumination, Day 10), 0.16%. Moreover, the “Stability at high humidity, at high temperature or under illumination (in words)” value in data set [10] is reported as “good stability”.

With `Cc1c(C(=O)Nc2ccc(F)c(C#N)c2)c(C)n(C)c1C(=O)C(=O)N[C@@H](C)C(F)(F)F` [crystalline form II, (S)—N-(3-cyano-4-fluorophenyl)-1,2,4-trimethyl-5-(2-oxo-2-((1,1,1-trifluoropropan-2-yl)amino)acetyl)-1H-pyrrol-3-carboxamide], the “Related substance (total impurities)” value came out at 0.24% in [10] (Day 0); 0.23% in data set [10] (High humidity (75% RH), Day 10); 0.25% in data set [10] (High humidity (75% RH), Day 30); 0.23% in [10] (setting [11]); 0.24% in [10] (setting [12]); 0.22% in [10] (setting [13]). Also, the “Related substance (total impurities)” value is recorded as 0.24% in data set [10] (setting [14]); 0.22% in data set [10] (setting [15]); 0.24% in [10] (setting [16]); 0.24% in data set [10] (setting [17]); 0.24% in [10] (setting [18]); 0.27% in data set [10] (Illumination, Day 10). The Water is listed as 0.22% in data set [10] (Day 0); 0.22% in [10] (High humidity (75% RH), Day 10); 0.21% in data set [10] (High humidity (75% RH), Day 30); 0.22% in data set [10] (setting [11]); 0.21% in [10] (setting [12]); 0.20% in [10] (setting [13]). The Water in [10] (setting [14]) came to 0.19%; in data set [10] (setting [15]), 0.18%; in [10] (setting [16]) it was 0.18%; in data set [10] (setting [17]) it was 0.24%; in data set [10] (setting [18]) it was 0.21%; in data set [10] (Illumination, Day 10), 0.22%. For the same compound, the “Stability at high humidity, at high temperature or under illumination (in words)” value in data set [10] is “good stability”.

The record behind these values is patent US12378192B2, “Crystalline form of capsid protein assembly inhibitor containing N hetero five-membered ring, and application thereof” (CHIA TAI TIANQING PHARMACEUTICAL GROUP CO., LTD., priority 2019, dated 2025).
